In PubChem BioAssay AID316 (DTP/NCI, 2004):
Several values for one entry are separate records, joined by “and”; a condition that tells them apart may be missing. Identical values can stand only once. Toxic doses and inconclusive results are not listed.

Tested on: P1534 leukemia ip, CD2F1 mice, survival T/C
Experiment: NCI In Vivo Anticancer Drug Screen. Data for tumor model P1534 Leukemia (intraperitoneal) in CD2F1 (CDF1) mice
Details: higher = longer survival
Protocol: The antitumor activity of compounds was measured in mice bearing transplantable tumors. Survival or tumor size were measured and the results are expressed as the measurement made in the treated group (T) divided by the measurement made in the vehicle treated control group (C). The tumor model used in this assay is P1534 Leukemia (intraperitoneal) in CD2F1 (CDF1) mice

[1] = endpoint: mean survival time, dose: 62.5 mg/kg/injection, schedule: Q01DX010 (ip), vehicle: saline
[2] = endpoint: mean survival time, dose: 125.0 mg/kg/injection, schedule: Q01DX010 (ip), vehicle: saline
[3] = endpoint: mean survival time, dose: 250.0 mg/kg/injection, schedule: Q01DX010 (ip), vehicle: saline
[4] = endpoint: mean survival time, dose: 6.25 mg/kg/injection, schedule: Q01DX010 (ip), vehicle: saline
[5] = endpoint: mean survival time, dose: 12.5 mg/kg/injection, schedule: Q01DX010 (ip), vehicle: saline
[6] = endpoint: mean survival time, dose: 25.0 mg/kg/injection, schedule: Q01DX010 (ip), vehicle: saline
[7] = endpoint: mean survival time, dose: 50.0 mg/kg/injection, schedule: Q01DX010 (ip), vehicle: saline
[8] = endpoint: mean survival time, dose: 100.0 mg/kg/injection, schedule: Q01DX010 (ip), vehicle: saline
[9] = endpoint: mean survival time, dose: 200.0 mg/kg/injection, schedule: Q01DX010 (ip), vehicle: saline
[10] = endpoint: mean survival time, dose: 7.5 mg/kg/injection, schedule: Q01DX010 (ip), vehicle: saline
[11] = endpoint: mean survival time, dose: 10.0 mg/kg/injection, schedule: Q01DX010 (ip), vehicle: saline
[12] = endpoint: mean survival time, dose: 3.0 mg/kg/injection, schedule: Q01DX010 (ip), vehicle: saline
[13] = endpoint: mean survival time, dose: 15.0 mg/kg/injection, schedule: Q01DX010 (ip), vehicle: saline
[14] = endpoint: mean survival time, dose: 30.0 mg/kg/injection, schedule: Q01DX010 (ip), vehicle: saline

CC(=O)Nc1ccc(/C=N/Nc2ccc([N+](=O)[O-])cn2)cc1
T/C [1]: 100 % of control
T/C [2]: 100 % of control
T/C [3]: 96 % of control

O=C(NCCCCC(NC(=O)c1ccccc1)C(=O)NCCCCCCCCCCNC(=O)C(CCCCNC(=O)c1ccccc1)NC(=O)c1ccccc1)c1ccccc1 (stereo not given)
T/C [4]: 103 % of control
T/C [5]: 103 % of control
T/C [6]: 100 % of control
T/C [7]: 96 % of control

C[C@]12C=CC(=O)C=C1CC[C@@H]1[C@@H]2[C@@H](O)C[C@@]2(C)[C@H]1CC[C@]2(O)C(=O)CO
T/C (endpoint: mean survival time, dose: 12.5 mg/kg/injection, schedule: Q01DX010 (sc), vehicle: steriod suspending solution): 103 % of control
T/C (endpoint: mean survival time, dose: 25.0 mg/kg/injection, schedule: Q01DX010 (sc), vehicle: steriod suspending solution): 106 % of control and 110 % of control

COC(=O)C1=COC(C)C2CN3CCc4c([nH]c5cc(OC)c(OC)cc45)C3CC12 (stereo not given)
T/C [7]: 96 % of control
T/C [8]: 100 % of control
T/C [9]: 100 % of control

Nc1nncs1
T/C [10]: 114 % of control

CC[C@H](CC[C@@H](C)[C@H]1CC[C@H]2[C@@H]3CC=C4C[C@@H](O)CC[C@]4(C)[C@H]3CC[C@]12C)C(C)C
T/C (endpoint: mean survival time, dose: 50.0 mg/kg/injection, schedule: Q01DX010 (ip), vehicle: other): 100 % of control
T/C (endpoint: mean survival time, dose: 100.0 mg/kg/injection, schedule: Q01DX010 (ip), vehicle: other): 100 % of control
T/C (endpoint: mean survival time, dose: 200.0 mg/kg/injection, schedule: Q01DX010 (ip), vehicle: other): 106 % of control
T/C (endpoint: mean survival time, dose: 300.0 mg/kg/injection, schedule: Q01DX010 (ip), vehicle: other): 108 % of control

C[C@@H]1C[C@@H]([C@H](O)CC2CC(=O)NC(=O)C2)C(=O)[C@@H](C)C1
T/C (endpoint: mean survival time, dose: 5.0 mg/kg/injection, schedule: Q01DX010 (ip), vehicle: saline): 112 % of control and 100 % of control
T/C [11]: 111 % of control and 112 % of control
T/C (endpoint: mean survival time, dose: 20.0 mg/kg/injection, schedule: Q01DX010 (ip), vehicle: saline): 111 % of control
T/C (endpoint: mean survival time, dose: 40.0 mg/kg/injection, schedule: Q01DX010 (ip), vehicle: saline): 105 % of control

COc1cc(-c2ccc(Nc3ccccc3C(=O)O)c(OC)c2)ccc1Nc1ccccc1C(=O)O
T/C [5]: 107 % of control
T/C [6]: 114 % of control and 117 % of control
T/C [7]: 117 % of control

CC(=O)N(C)C
T/C [1]: 94 % of control and 100 % of control
T/C [2]: 105 % of control and 100 % of control
T/C [3]: 105 % of control and 100 % of control
T/C (endpoint: mean survival time, dose: 500.0 mg/kg/injection, schedule: Q01DX010 (ip), vehicle: saline): 100 % of control

NC(=O)c1ccc(N)nc1
T/C (endpoint: mean survival time, dose: 0.25 mg/kg/injection, schedule: Q#A X020 (ip), vehicle: saline): 119 % of control
T/C (endpoint: mean survival time, dose: 0.38 mg/kg/injection, schedule: Q01DX010 (ip), vehicle: saline): 120 % of control and 94 % of control
T/C (endpoint: mean survival time, dose: 0.75 mg/kg/injection, schedule: Q01DX010 (ip), vehicle: saline): 153 % of control
T/C (endpoint: mean survival time, dose: 1.5 mg/kg/injection, schedule: Q01DX006 (iv), vehicle: saline): 114 % of control
T/C (endpoint: mean survival time, dose: 1.5 mg/kg/injection, schedule: Q01DX010 (im), vehicle: saline): 121 % of control
T/C (endpoint: mean survival time, dose: 1.5 mg/kg/injection, schedule: Q01DX010 (oral), vehicle: saline): 100 % of control
T/C (endpoint: mean survival time, dose: 1.5 mg/kg/injection, schedule: Q01DX010 (sc), vehicle: saline): 121 % of control
T/C (endpoint: mean survival time, dose: 1.5 mg/kg/injection, schedule: Q03DX Z (ip), vehicle: saline): 119 % of control
T/C (endpoint: mean survival time, dose: 2.0 mg/kg/injection, schedule: Q#A X020 (ip), vehicle: saline): 100 % of control
T/C (endpoint: mean survival time, dose: 3.0 mg/kg/injection, schedule: Q01DX006 (iv), vehicle: saline): 114 % of control
T/C (endpoint: mean survival time, dose: 3.0 mg/kg/injection, schedule: Q01DX010 (im), vehicle: saline): 121 % of control
T/C [12]: 158 % of control
T/C (endpoint: mean survival time, dose: 3.0 mg/kg/injection, schedule: Q01DX010 (oral), vehicle: saline): 123 % of control
T/C (endpoint: mean survival time, dose: 3.5 mg/kg/injection, schedule: Q01DX001 (ip), vehicle: saline): 115 % of control
T/C (endpoint: mean survival time, dose: 3.5 mg/kg/injection, schedule: Q07DX Z (ip), vehicle: saline): 115 % of control
T/C (endpoint: mean survival time, dose: 6.0 mg/kg/injection, schedule: Q01DX010 (im), vehicle: saline): 121 % of control
T/C (endpoint: mean survival time, dose: 6.0 mg/kg/injection, schedule: Q01DX010 (ip), vehicle: saline): 88 % of control
T/C (endpoint: mean survival time, dose: 7.0 mg/kg/injection, schedule: Q01DX001 (ip), vehicle: saline): 115 % of control
T/C (endpoint: mean survival time, dose: 12.0 mg/kg/injection, schedule: Q03DX Z (ip), vehicle: saline): 119 % of control
T/C (endpoint: mean survival time, dose: 14.0 mg/kg/injection, schedule: Q01DX001 (ip), vehicle: saline): 117 % of control and 119 % of control
T/C (endpoint: mean survival time, dose: 14.0 mg/kg/injection, schedule: Q07DX Z (ip), vehicle: saline): 117 % of control and 119 % of control
T/C (endpoint: mean survival time, dose: 28.0 mg/kg/injection, schedule: Q01DX001 (ip), vehicle: saline): 88 % of control
T/C (endpoint: mean survival time, dose: 112.0 mg/kg/injection, schedule: Q01DX001 (ip), vehicle: saline): 121 % of control

CCCNc1ncnc2[nH]ncc12
T/C (endpoint: mean survival time, dose: 3.13 mg/kg/injection, schedule: Q01DX010 (ip), vehicle: saline): 100 % of control
T/C [4]: 88 % of control and 100 % of control
T/C [5]: 111 % of control and 100 % of control
T/C [6]: 94 % of control and 100 % of control

C[N+](C)(C)c1ncnc2nc[nH]c12
T/C [13]: 107 % of control
T/C [14]: 110 % of control
T/C (endpoint: mean survival time, dose: 60.0 mg/kg/injection, schedule: Q01DX010 (ip), vehicle: saline): 114 % of control

O=C(NCCCC(NC(=O)OCc1ccccc1)C(=O)NCCCNCCCCNCCCNC(=O)C(CCCNC(=O)OCc1ccccc1)NC(=O)OCc1ccccc1)OCc1ccccc1 (stereo not given)
T/C (endpoint: mean survival time, dose: 2.5 mg/kg/injection, schedule: Q01DX010 (ip), vehicle: saline): 100 % of control
T/C [11]: 100 % of control

CCn1cnc2c(=S)nc[nH]c21
T/C (endpoint: mean survival time, dose: 31.3 mg/kg/injection, schedule: Q01DX010 (ip), vehicle: saline): 114 % of control

COc1ccc2cc3[n+](cc2c1O)CCc1cc2c(cc1-3)OCO2
T/C [5]: 111 % of control
T/C [6]: 123 % of control
T/C [7]: 115 % of control

O=CC(NC(=O)N(CCCl)N=O)C(O)C(O)C(O)CO (stereo not given)
T/C (endpoint: median survival time, dose: 0.62 mg/kg/injection, schedule: Q01DX005 (ip), vehicle: other): 110 % of control
T/C (endpoint: median survival time, dose: 2.5 mg/kg/injection, schedule: Q01DX005 (ip), vehicle: other): 156 % of control
T/C (endpoint: median survival time, dose: 5.0 mg/kg/injection, schedule: Q01DX005 (ip), vehicle: other): 224 % of control
T/C (endpoint: median survival time, dose: 10.0 mg/kg/injection, schedule: Q01DX005 (ip), vehicle: other): 89 % of control

O=C(CCCNC(=O)OCc1ccccc1)NCCCCCCCCCCNC(=O)CCCNC(=O)OCc1ccccc1
T/C [7]: 89 % of control
T/C [8]: 89 % of control

Cn1c(=O)c2c(ncn2C)n(C)c1=O
T/C [6]: 100 % of control
T/C [7]: 100 % of control
T/C [8]: 100 % of control

O=C1C(=O)N(CN2CCOCC2)c2ccccc21
T/C [7]: 100 % of control
T/C [8]: 100 % of control
T/C [9]: 96 % of control
T/C (endpoint: mean survival time, dose: 400.0 mg/kg/injection, schedule: Q01DX010 (ip), vehicle: saline): 103 % of control

CS(=O)(=O)OCCCCOS(C)(=O)=O
T/C [4]: 106 % of control and 88 % of control
T/C [5]: 88 % of control and 100 % of control
T/C [6]: 112 % of control and 88 % of control
T/C [7]: 112 % of control and 100 % of control

CC[C@]12CN3CCc4c([nH]c5ccccc45)[C@@](C(=O)OC)(c4cc5c(cc4OC)N(C)[C@H]4[C@@](O)(C(=O)OC)[C@H](OC(C)=O)[C@]6(CC)C=CCN7CC[C@]54[C@@H]76)CC(C3)[C@H]1O2 (stereo not given in full)
T/C (endpoint: mean survival time, dose: 1.5 mg/kg/injection, schedule: Q01DX010 (ip), vehicle: saline): 182 % of control
T/C [12]: 260 % of control
T/C (endpoint: mean survival time, dose: 94.0 micrograms/kg/injection, schedule: Q01DX010 (ip), vehicle: saline): 96 % of control
T/C (endpoint: mean survival time, dose: 188.0 micrograms/kg/injection, schedule: Q01DX010 (ip), vehicle: saline): 103 % of control
T/C (endpoint: mean survival time, dose: 375.0 micrograms/kg/injection, schedule: Q01DX010 (ip), vehicle: saline): 123 % of control

C/C=C1\CN2C3C[C@H]1C(C(=O)OC)[C@H]2Cc1c3[nH]c2ccccc12 (stereo not given in full)
T/C [10]: 100 % of control
T/C [13]: 93 % of control
T/C [14]: 93 % of control

CC[C@@H](c1ccc(O)cc1)[C@@H](CC)c1ccc(O)cc1
T/C (endpoint: mean survival time, dose: 25.0 mg/kg/injection, schedule: Q01DX010 (sc), vehicle: water): 100 % of control
T/C (endpoint: mean survival time, dose: 50.0 mg/kg/injection, schedule: Q01DX010 (sc), vehicle: water): 92 % of control
T/C (endpoint: mean survival time, dose: 100.0 mg/kg/injection, schedule: Q01DX010 (sc), vehicle: water): 92 % of control
T/C (endpoint: mean survival time, dose: 200.0 mg/kg/injection, schedule: Q01DX010 (sc), vehicle: water): 92 % of control

NC(=O)c1cn[nH]c1N
T/C (endpoint: mean survival time, dose: 100.0 mg/kg/injection, schedule: Q01DX010 (ip), vehicle: water): 100 % of control
T/C (endpoint: mean survival time, dose: 200.0 mg/kg/injection, schedule: Q01DX010 (ip), vehicle: water): 93 % of control
